From US10499640B2, “Herbicidal compounds” (SYNGENTA PARTICIPATIONS AG, priority 2014, dated 2019)

Tests used:
Type in all cases: in vivo
Zea mays (ZEAMX) [1] = assay: Pre-emergence herbicidal activity, glasshouse pot test; conditions: Rate 1000 g/Ha; sprayed one day after sowing; evaluated after 13 days; scale 0-5
Description: (§1) Seeds of a variety of test species were sown in standard soil in pots. After cultivation for one day (pre-emergence) under controlled conditions in a glasshouse (at 24/16° C., day/night; 14 hours light; 65% humidity), the plants were sprayed with an aqueous spray solution derived from the formulation of the technical active ingredient in acetone/water (50:50) solution containing 0.5% Tween 20 (polyoxyethelyene sorbitan monolaurate, CAS RN 9005-64-5). The test plants were then grown in a glasshouse under controlled conditions (at 24/16° C., day/night; 14 hours light; 65% humidity) and watered twice daily. After 13 days, the test was evaluated (5=total damage to plant; 0=no damage to plant).

[2] = system: Echinochloa crus-galli (ECHCG); assay: as above; design: key: 5=total damage to plant; 0=no damage to plant; conditions: Rate 1000 g/Ha; sprayed one day after sowing; evaluated after 13 days; scale 0-5
Description: as §1

[3] = system: Amaranthus retroflexus (AMARE); assay: as above; design: key: 5=total damage to plant; 0=no damage to plant; conditions: Rate 1000 g/Ha; sprayed one day after sowing; evaluated after 13 days; scale 0-5
Description: as §1

[4] = system: Abutilon theophrasti (ABUTH); assay: as above; design: key: 5=total damage to plant; 0=no damage to plant; conditions: Rate 1000 g/Ha; sprayed one day after sowing; evaluated after 13 days; scale 0-5
Description: as §1

[5] = system: Alopecurus myosuroides (ALOMY); assay: as above; design: key: 5=total damage to plant; 0=no damage to plant; conditions: Rate 1000 g/Ha; sprayed one day after sowing; evaluated after 13 days; scale 0-5
Description: as §1

Setaria faberi (SETFA) [6] = assay: as above; design: key: 5=total damage to plant; 0=no damage to plant; conditions: Rate 1000 g/Ha; sprayed one day after sowing; evaluated after 13 days; scale 0-5
Description: as §1

[7] = system: Echinochloa crus-galli (ECHCG); assay: Post-emergence herbicidal activity, glasshouse pot test; design: key: 5=total damage to plant; 0=no damage to plant; conditions: Rate 1000 g/Ha; sprayed after 8 days cultivation; evaluated after 13 days; scale 0-5
Description: (§2) Seeds of a variety of test species were sown in standard soil in pots. After 8 days cultivation (post-emergence) under controlled conditions in a glasshouse (at 24/16° C., day/night; 14 hours light; 65% humidity), the plants were sprayed with an aqueous spray solution derived from the formulation of the technical active ingredient in acetone/water (50:50) solution containing 0.5% Tween 20 (polyoxyethelyene sorbitan monolaurate, CAS RN 9005-64-5). The test plants were then grown in a glasshouse under controlled conditions (at 24/16° C., day/night; 14 hours light; 65% humidity) and watered twice daily. After 13 days, the test was evaluated (5=total damage to plant; 0=no damage to plant).

Zea mays (ZEAMX) [8] = assay: as above; design: key: 5=total damage to plant; 0=no damage to plant; conditions: Rate 1000 g/Ha; sprayed after 8 days cultivation; evaluated after 13 days; scale 0-5
Description: as §2

[9] = system: Amaranthus retroflexus (AMARE); assay: as above; design: key: 5=total damage to plant; 0=no damage to plant; conditions: Rate 1000 g/Ha; sprayed after 8 days cultivation; evaluated after 13 days; scale 0-5
Description: as §2

[10] = system: Abutilon theophrasti (ABUTH); assay: as above; design: key: 5=total damage to plant; 0=no damage to plant; conditions: Rate 1000 g/Ha; sprayed after 8 days cultivation; evaluated after 13 days; scale 0-5
Description: as §2

[11] = system: Alopecurus myosuroides (ALOMY); assay: as above; design: key: 5=total damage to plant; 0=no damage to plant; conditions: Rate 1000 g/Ha; sprayed after 8 days cultivation; evaluated after 13 days; scale 0-5
Description: as §2

Setaria faberi (SETFA) [12] = assay: as above; design: key: 5=total damage to plant; 0=no damage to plant; conditions: Rate 1000 g/Ha; sprayed after 8 days cultivation; evaluated after 13 days; scale 0-5
Description: as §2

SMILES | ZEAMX damage score, application pre-emergence (Zea mays (ZEAMX) [1]) | ECHCG damage score, application pre-emergence [2] | AMARE damage score, application pre-emergence [3] | ABUTH damage score, application pre-emergence [4] | ALOMY damage score, application pre-emergence [5] | SETFA damage score, application pre-emergence (Setaria faberi (SETFA) [6]) | ECHCG damage score, application post-emergence [7] | ZEAMX damage score, application post-emergence (Zea mays (ZEAMX) [8]) | AMARE damage score, application post-emergence [9] | ABUTH damage score, application post-emergence [10] | ALOMY damage score, application post-emergence [11] | SETFA damage score, application post-emergence (Setaria faberi (SETFA) [12])
CON1C(=O)N(c2cc(C(C)(C)F)on2)C(O)C1C (stereo not drawn) [Compound A1, 1-[5-(1-fluoro-1-methyl-ethyl)isoxazol-3-yl]-5-hydroxy-3-methoxy-4-methyl-imidazolidin-2-one] | 2 | 4 | 5 | 5 | 4 | 4 | 5 | 5 | 5 | 5 | 5 | 5
CC1C(O)N(c2cc(C(C)(C)F)on2)C(=O)N1C (stereo not drawn) [Compound A2, 1-[5-(1-fluoro-1-methyl-ethyl)isoxazol-3-yl]-5-hydroxy-3,4-dimethyl-imidazolidin-2-one] | 2 | 4 | 5 | 5 | 4 | 4 | 5 | 5 | 5 | 5 | 5 | 5
CN1CC(O)N(c2cc(C(C)(C)F)on2)C1=O (stereo not drawn) [Compound A3] | 2 | 5 | 5 | 5 | 4 | 4 | 5 | 5 | 5 | 5 | 5 | 5
CN1CC(O)N(c2cc(C(C)(C)C#N)on2)C1=O (stereo not drawn) [Compound A4] | 4 | 5 | 5 | 5 | 4 | 5 | 5 | 5 | 5 | 5 | 5 | 5
CC1C(O)N(c2cc(C(C)(C)C#N)on2)C(=O)N1C (stereo not drawn) [Compound A5] | 3 | 5 | 5 | 5 | 4 | 5 | 5 | 5 | 5 | 5 | 5 | 5
CC1NC(=O)N(c2cc(C(C)(C)C#N)on2)C1O (stereo not drawn) [Compound A7] | 2 | 4 | 5 | 5 | 4 | 4 | 4 | 3 | 5 | 5 | 4 | 4
CC(C)(C#N)c1cc(N2C(=O)NCC2O)no1 (stereo not drawn) [Compound A8] | 1 | 1 | 5 | 5 | 0 | 1 | 3 | 1 | 4 | 5 | 2 | 3
CC(C)(C)c1cc(N2C(=O)N3CCCCC3C2O)no1 (stereo not drawn) [Compound A26] | 3 | 4 | 5 | 5 | 4 | 4 | 5 | 5 | 5 | 5 | 5 | 5
